Measurements taken from patent US7129269B2, “Compound” (Sterix Ltd., priority 1996, dated 2006).

Columns and labels:
oestrone sulphatase [1] = molecular target: T1, oestrone sulphatase (Homo sapiens, UniProt P08842); experiment: Oestrone sulphatase inhibition in placental microsomes; format: biochemical; details: placental microsomes
T1 construct: from tissue; host or cells: placenta (microsomes, 100,000 g)
T1 sequence (P08842 22-583): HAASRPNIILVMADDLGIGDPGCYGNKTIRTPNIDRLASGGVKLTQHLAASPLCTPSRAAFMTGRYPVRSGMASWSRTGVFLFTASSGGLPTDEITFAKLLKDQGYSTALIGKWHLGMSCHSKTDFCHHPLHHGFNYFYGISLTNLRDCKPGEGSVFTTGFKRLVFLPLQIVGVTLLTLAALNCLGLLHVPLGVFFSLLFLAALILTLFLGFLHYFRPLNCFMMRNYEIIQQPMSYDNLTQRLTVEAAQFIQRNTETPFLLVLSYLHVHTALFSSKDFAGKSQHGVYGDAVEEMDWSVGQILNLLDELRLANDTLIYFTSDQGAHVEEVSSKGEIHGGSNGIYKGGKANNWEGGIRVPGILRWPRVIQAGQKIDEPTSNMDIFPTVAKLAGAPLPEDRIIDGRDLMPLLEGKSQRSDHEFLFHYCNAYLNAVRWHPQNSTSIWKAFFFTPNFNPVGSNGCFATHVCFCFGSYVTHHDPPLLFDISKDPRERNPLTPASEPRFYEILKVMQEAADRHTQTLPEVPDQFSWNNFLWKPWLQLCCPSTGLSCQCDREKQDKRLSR

[2] = molecular target: T2, oestrone sulphatase (E1-STS) (Homo sapiens, UniProt P08842); experiment: Oestrone sulphatase (E1-STS) inhibition in intact MCF-7 breast cancer cells; format: cell-based
T2 construct: endogenous in cells; host or cells: MCF-7 breast cancer cells
T2 sequence (P08842 22-583): T1 sequence (P08842 22-583)

aromatase = molecular target: T3, aromatase (Homo sapiens, UniProt P11511)
T3 sequence (P11511 1-503): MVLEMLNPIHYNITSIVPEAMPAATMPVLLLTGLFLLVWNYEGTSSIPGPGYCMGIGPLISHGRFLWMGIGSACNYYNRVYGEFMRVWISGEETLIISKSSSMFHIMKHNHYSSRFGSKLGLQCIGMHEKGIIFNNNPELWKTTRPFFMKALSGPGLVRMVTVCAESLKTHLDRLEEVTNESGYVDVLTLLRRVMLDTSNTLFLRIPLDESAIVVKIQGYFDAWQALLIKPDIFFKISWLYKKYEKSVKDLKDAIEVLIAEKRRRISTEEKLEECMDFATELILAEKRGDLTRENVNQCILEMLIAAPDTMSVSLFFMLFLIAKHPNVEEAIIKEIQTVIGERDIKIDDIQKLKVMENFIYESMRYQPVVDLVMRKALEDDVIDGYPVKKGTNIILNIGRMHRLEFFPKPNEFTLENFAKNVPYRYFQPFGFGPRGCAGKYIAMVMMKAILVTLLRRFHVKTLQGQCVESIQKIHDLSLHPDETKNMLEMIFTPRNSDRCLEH

oestrone sulphatase [3] = molecular target: T4, oestrone sulphatase (Rattus norvegicus, UniProt P15589); experiment: In vivo inhibition of oestrone sulphatase activity in rat liver; details: 24 hours after single oral dose in propylene glycol, 10 mg/Kg
T4 construct: from tissue; host or cells: rat liver
T4 sequence (P15589 20-577): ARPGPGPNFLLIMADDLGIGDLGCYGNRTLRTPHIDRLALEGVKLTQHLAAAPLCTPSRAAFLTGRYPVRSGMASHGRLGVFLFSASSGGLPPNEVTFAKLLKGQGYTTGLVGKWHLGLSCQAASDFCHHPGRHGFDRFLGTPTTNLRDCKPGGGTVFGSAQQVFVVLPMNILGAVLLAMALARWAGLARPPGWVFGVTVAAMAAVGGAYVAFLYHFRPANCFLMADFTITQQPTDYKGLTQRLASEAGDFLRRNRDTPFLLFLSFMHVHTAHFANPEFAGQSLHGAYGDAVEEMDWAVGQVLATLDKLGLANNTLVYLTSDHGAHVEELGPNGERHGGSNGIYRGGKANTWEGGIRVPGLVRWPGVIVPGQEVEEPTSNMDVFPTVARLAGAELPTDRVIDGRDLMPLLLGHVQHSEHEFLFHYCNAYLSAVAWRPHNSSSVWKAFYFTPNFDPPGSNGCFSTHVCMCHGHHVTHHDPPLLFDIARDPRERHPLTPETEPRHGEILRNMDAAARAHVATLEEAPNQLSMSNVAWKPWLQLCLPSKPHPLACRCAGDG
Procedure: FIG. 11 presents in vivo inhibition of oestrone sulphatase activity in rat liver for two isoflavones according to the present invention. […] Compounds were administered as a single 10 mg/Kg dose. Oestrone sulphatase activity was assayed in tissue samples obtained 24 h after drug administration.

% INHIBITION Sulphatase (oestrone sulphatase [1]; 10 μM, listed as 5,7-dehydroxy flavanone-4′-sulphamate) [%] | % Inhibition of sulphatase activity in MCF-7 cells ([2]; 0.1 μM) [%] | % Inhibition of oestrone sulphatase in vivo (oestrone sulphatase [3]) [%] | Structure (SMILES) | % INHIBITION Sulphatase (oestrone sulphatase [1]; 1 μM) [%] | % INHIBITION Sulphatase (oestrone sulphatase [1]; 10 μM) [%] | % Inhibition of sulphatase activity in MCF-7 cells ([2]; 1 μM) [%] | % Inhibition of sulphatase activity in MCF-7 cells ([2]; 10 μM) [%] | % Inhibition of aromatase activity in placental microsomes at 10 μM (aromatase) [%]
 |  |  | NS(=O)(=O)Oc1cc(O)c2c(=O)cc(-c3ccccc3)oc2c1 [Compound 3, 5-Hydroxyflavone 7-O-sulphamate] | 8 | 21 | 4.2 ± 0.9 | 20.6 ± 1.2 | 85
98 | 30 ± 2.8 | 44.2 ± 3.8 | NS(=O)(=O)Oc1ccc(C2CC(=O)c3c(O)cc(O)cc3O2)cc1 (stereo not shown) [Compound 20, 5,7-Dihydroxyflavanone 4′-O-sulphamate] |  |  | 79 ± 1.2 | > 99 | 
